Laboratory results as given in patent US10618900B2, “5-aromatic alkynyl substituted benzamide compound and preparation method, pharmaceutical composition, and use thereof” (SHANGHAI INSTITUTE OF MATERIA MEDICA, CHINESE ACADEMY OF …, priority 2015, dated 2020).

What was measured:
[1] = test system: Fmr1 knockout mice; assay: Audiogenic epilepsy induced animal model of Fmr1 knockout mice; assay type: in vivo; conditions: for Seizure level: level 0-4
Protocol: In this study, we used audiogenic epilepsy induced animal model of Fmr1 knockout mice, and evaluated the efficacy of compound ZD043 with epilepsy seizure latency, seizure level and epileptic mortality as evaluation indexes.
Species, strain: Fmr1 knockout mice, FVB.129P2-Pde6b^+ Tyr^c-ch Fmr1^tm1Cgr/J (strain number 004624)
Test reagent and preparation method: before the experiment, 2.0 mg ZD043 was weighed in 2 mL centrifuge tube, 10 uL DMSO was taken with a precise pipette to dissolve ZD043 powder, then 10 uL Tween80 was added, mixed and 980 uL of saline was added, well mixed to form a suspension liquid.
Methods: The mice were weighed on the day of the experiment. The mice were injected intraperitoneally into 19 to 22 days Fmr1 knockout mice respectively according to the experimental design group 30 minutes before the convulsive test. The mice to be tested were transferred to a sonic seizure test laboratory, placed in a transparent organic glass bucket, and a high-decibel siren loudspeaker was fixed on the top of organic glass bucket. Before delivering the stimulate sound, the mouse was allowed to explore freely for 1 minute, then turn on the loudspeaker, video recorded for the whole process by surveillance system, sound stimulated (≥120 dB) for 3 minutes, or stop after the animal was died, and the experiment was ended.
Test method: After the end of the experiment, the epilepsy seizure latency (2 grade appearance was regarded as seizures, and the longest latency period was recorded as 300 seconds if no epilepsy was observed) and seizure level (Level 0: no epileptic response; Level 1: rapid running and continuous jump; Level 2: paroxysmal epilepsy; Level 3: tonic epilepsy; Level 4: death) were analyzed according to video record.
Data processing: calculate the mean and standard error of the epilepsy seizure latency and seizure level as well as the percentage of epilepsy death of each group.

[2] = test system: ICR mice; assay: Mouse forced swimming experiment; assay type: in vivo; conditions: later 4 min of 6 min
Protocol: Experimental principle: The principle of Mouse Forced Swimming Test (FST) is to allow the mouse to swim in a limited space from which it can not escape, thus inducing animal to non-movement state which reflects the animal's desperate behavior.
Experimental animals: ICR mice, 20-28 g, both male and female
Sample treatment: The test compounds were ground with 1% CMC (sodium carboxymethyl cellulose) aqueous solution to prepare a homogeneous solution. In vivo dose was 5 mg/kg, 10 mg/kg and 20 mg/kg, the compound was oral administered at 0.1 ml/10 g volume/body weight. Positive control drugs (amitriptyline and fluoxetine) were dissolved with 0.9% saline, in vivo dose was 10 mg/kg, administered by intraperitoneal injection at 0.1 ml/10 g volume/body weight. (Note: the mice were fasted for 8 h and drinked water ad libitum before the compound was given.)
Experimental Methods: mice were grouped randomly. […] On the second day of the test, the mice were orally administered the compound. After 1 hour (0.5 hours after intraperitoneal injection), the mice were then put in water to record the immobility time in the later 4 min of 6 min.

Which results are given for `Cc1nc(C#Cc2ccc(F)c(C(=O)Nc3cccnc3)c2)cs1` [ZD043]?
Mortality (%) ([1]; 10 mg/kg intraperitoneal): 25%; Latency ([1]; 10 mg/kg intraperitoneal, single injection, 30 min before test): 133.9 s; Seizure level ([1]; 10 mg/kg intraperitoneal): 1.4; Latency ([1]; 20 mg/kg intraperitoneal): 123.1 s; Mortality (%) ([1]; 20 mg/kg intraperitoneal): 12.5%; Seizure level ([1]; 20 mg/kg intraperitoneal): 1.5; Latency ([1]; 30 mg/kg intraperitoneal): 180 s; Mortality (%) ([1]; 30 mg/kg intraperitoneal): 0%; Seizure level ([1]; 30 mg/kg intraperitoneal): 0; immobility time (%) Mean ± SEM ([2]; 5 mg/kg oral): reduced; immobility time (%) Mean ± SEM ([2]; 5 mg/kg oral, listed as D043): 74.97 ± 18.79%; immobility time (%) Mean ± SEM ([2]; 10 mg/kg oral): reduced; immobility time (%) Mean ± SEM ([2]; 10 mg/kg oral, listed as D043): 66.01 ± 21.08%; immobility time (%) Mean ± SEM ([2]; 20 mg/kg oral): reduced; immobility time (%) Mean ± SEM ([2]; 20 mg/kg oral, listed as D043): 46.50 ± 13.03%
